Where “and” joins values, the source holds several entries; their conditions need not be identical. Identical values can stand only once. Like-named read-outs stand apart in the source and are kept apart here.
What was measured:
[1] = system: leishmanial tubulin; details: reference 8; cited from earlier work
[2] = system: L. donovani promastigotes; test: Growth inhibition of L. donovani promastigotes; type: cell-based, Leishmania donovani; details: for IC50: read-out: IC50 vs. L. donovani promastigotes
[3] = system: L. donovani axenic amastigotes; test: Growth inhibition of L. donovani axenic amastigotes (three-day tetrazolium dye assay); type: cell-based, Leishmania donovani
Protocol: (§1) 2000, 110, 223-236, incorporated herein by reference.^14
(§2) Determination of the drug susceptibility of parasites and mammalian cells. The susceptibility of Leishmania donovani amastigote-like parasites (WHO designation: MHOM/SD/62/1S-CL2D) to growth inhibition by compounds of interest was measured in a three-day assay using the tetrazolium dye-based CellTiter reagent (Promega) (Werbovetz, K., Brendle, J., and Sackett, D. (1999) Mol. Biochem. Parasitol. 98, 53-65., and Havens, C., Bryant, N., Asher, L., Lamoreaux, L., Perfetto, S., Brendle, J., and Werbovetz, K. (2000) Mol. Biochem. Parasitol. 110, 223-236). The amastigote medium used in this assay is based on the medium mentioned by Joshi et al. (Joshi, M., Dwyer, D. M., and Nakhasi, H. L. (1993) Mol. Biochem. Parasitol. 58, 345-354). Prior to addition of fetal bovine serum to a final concentration of 20%, this amastigote medium contains 15 mM KCl, 115 mM KH2PO4, 10 mM K2HPO4, 0.5 mM MgSO4, 24 mM NaHCO3, a 1-concentration of RPMI-1640 vitamins and amino acids, 2.0 mM L-glutamine, 22 mM D-glucose, 100 units/mL penicillin, 100 ∝g/ml streptomycin, 0.1 mM adenosine, 1 ∝g/mL folate, and 25 mM MES (pH 5.5). Compounds were tested for their activity against bloodstream-form Trypanosoma brucei brucei (MITat 1.2, variant 221) axenically-cultured in HMI-9 medium , H., and Hirumi, K. (1989) J. Parasitol. 75, 985-989.) following the procedure of Ellis et al. (Ellis, J., Fish, W., Sileghem, M., and McOdimba, F. (1993) Vet. Parasitol. 50, 143-149.) with some modifications. Briefly, 100 μL of late log phase parasites were incubated in 96-well plates (Costar) at an initial concentration of 10^5 cells/ml with or without test compounds at 37° C. in a humidified 5% CO2 atmosphere for 72 hours. Twenty-five μL of a 5 mg/mL solution of MTT (prepared in phosphate buffered saline and filter sterilized) was then added to each well and plates were re-incubated at 37° C. as before for 2 h. One hundred ∝L of 20% SDS lysis buffer (prepared in 50% aqueous DMF) was added to each well and plates were incubated as before for an additional 3-4 h. Optical densities were then measured at 570 nm using SpectraMax Plus microplate reader. […] Assessment of the in vitro sensitivity of T. b. brucei Lab 110 EATRO and P. falciparum strains to compounds was performed by methods described in Donkor et al. (Donkor, I., Assefa, H., Rattendi, D., Lane, S., Vargas, M., Goldberg, B., and Bacchi, C. (2001) Eur. J. Med. Chem. 36, 531-538.) and Guan et al. (Guan, J., Kyle, D., Gerena, L., Zhang, Q., Milhous, W., and Lin, A. (2002) J. Med. Chem. 45, 2741-2748).

[4] = system: leishmanial tubulin; type: biochemical; details: mean ± SD of at least one duplicate measurement, SD of controls 27.6%
Protocol: as §1
Briefly, the tubulin assembly assays are performed as follows. […] The change in turbidity was measured at 351 nm using the SpectraMax Plus microplate reader immediately after GTP addition at 30° C. (for leishmanial tubulin) or 37° C. (for brain tubulin).

[5] = system: Trypanosoma brucei brucei (MITat 1.2, variant 221); test: microbe, parasite or virus in culture; type: cell-based; details: read-out: IC50, T. b. brucei variant 221
Protocol: as §2

[6] = system: T. b. brucei Lab 110 EATRO; test: In vitro sensitivity of T. b. brucei Lab 110 EATRO (Coulter counter, two-day); type: cell-based, Trypanosoma brucei brucei; details: read-out: IC50, T. b. brucei Lab 110 EATRO
Protocol: as §2

[7] = system: P. falciparum D6 strain; test: In vitro sensitivity of P. falciparum D6 strain (tritiated hypoxanthine uptake); type: cell-based, Plasmodium falciparum
Protocol: as §2

[8] = system: P. falciparum W2 strain; test: microbe, parasite or virus in culture; type: cell-based, Plasmodium falciparum
Protocol: as §2

[9] = system: J774 murine macrophages; test: Toxicity to J774 macrophages (three-day CellTiter assay); type: cell-based
Protocol: (§3) The toxicity of compounds to J774 murine macrophages and PC3 […] cells was measured in a three-day assay using the CellTiter reagent. […] Macrophages were allowed to adhere for 24 hours, then the medium was removed and replaced with serial dilutions of the test compounds in the DMEM medium mentioned above without phenol red. After 72 hr incubation with the test compounds at 37° C. in a humidified 5% CO2 incubator, cell viability was determined using the CellTiter reagent by adding 20 μL of assay solution to each well. After a 6-7 h incubation at 37° C. to allow for color development, the absorbance of each well at 490 nm was measured in a SpectraMax Pro microplate reader (Molecular Devices). The toxicity of compounds to PC3 cells was assessed in the same manner as for the macrophages, except that the medium used was RPMI 1640 supplemented with 10% heat inactivated fetal calf serum, 2.0 mM L-glutamine, 50 units/mL penicillin, and 50 ∝g/mL streptomycin. IC50 values for the J774 and PC3 assays were determined with the software program SoftMax Pro as described earlier.

[10] = system: PC3 cells; test: Toxicity to PC3 cells (three-day CellTiter assay); type: cell-based; details: read-out: IC50, PC3 prostate
Protocol: as §3

[11] = system: L. donovani promastigotes; test: Flow cytometry of DNA content in L. donovani promastigotes; type: cell-based, Leishmania donovani; details: 10 μM compound; for effect on cell cycle / DNA content by flow cytometry: 48 hour treatment of promastigotes
Protocol: Flow cytometry and fluorescence cell sorting. Parasites or J774 macrophages were incubated in T25 flasks (3-5 mL final volume) in the appropriate media described earlier for 24-48 h. Cultures contained 1% DMSO (v/v) in the presence or absence of test compounds. Cells were counted using a hemacytometer, then were centrifuged (1000×·g for parasites, 200×·g for macrophages) at 4° C. for 10 min (parasites) or 5 min (macrophages). Cells were resuspended in 150 μL of PBS (0.01 M phosphate, 0.137 M NaCl, and 2.7 mM KCl), then 350 μL of ice-cold methanol was added and the samples were fixed at −20° C. for 2-3 h. Cells were centrifuged as before and resuspended in PBS containing 0.1% TX-100, 5 μg/mL RNase A, and 10 μg/mL propidium iodide for 20-30 min. Centrifugation was repeated, then cells were resuspended in PBS to a final concentration of 5×10^5-10^6/mL and stored at 4° C. until analysis. Fluorescence cell sorting was conducted on a Beckman Coulter Elite flow cytometer.

[12] = literature reference 4; cited from earlier work
[13] = Leishmania donovani, 72 h, Table 4, three-day tetrazolium dye assay, mean ± SD, read-out: IC50, L. donovani axenic amastigotes
[14] = Leishmania donovani, Table 1, mean ± standard deviation of at least two independent measurements, read-out: IC50 vs. L. donovani amastigotes
[15] = Trypanosoma brucei, 72 h, Table 4, three-day tetrazolium dye assay
[16] = Plasmodium falciparum, D6, read-out: IC50, P. falciparum D6 strain
[17] = Plasmodium falciparum, W2, read-out: IC50, P. falciparum W2 strain
[18] = Mus musculus, J774, Table 4, mean ± SD of at least two independent experiments, read-out: IC50, J774 macrophages
[19] = read-out: IC50, J774 macrophages

In the case of `O=[N+]([O-])c1cc(C(F)(F)F)cc([N+](=O)[O-])c1Cl` [Chloralin, chloralin], the “inhibition of leishmanial tubulin polymerization (in words, earlier publication)” value [1] is given as “inhibitor of leishmanial tubulin polymerization”.

Molecule `CCCCN(CCCC)c1c([N+](=O)[O-])cc(S(N)(=O)=O)cc1[N+](=O)[O-]` [Compound 15, 4(dibutylamino)-3,5-dinitrobenzenesulfonamide] has an IC50 ([2]; Leishmania donovani) of 17.8 ± 2.6 µM, an IC50 [3, 13] of 20.1 ± 0.2 µM and an IC50 ([3]; Leishmania donovani, 72 h, unit inferred, three-day tetrazolium dye assay, read-out: IC50, L. donovani axenic amastigotes) of 20.1 ± 0.2 µM. The IC50 [3, 14] was 20.1 ± 0.2 µM, the “% Inhibition of Leishmanial Tubulin Assembly at 20 μM Compound” value (“% Inhibition” for short) [4] was 89 ± 3% and the IC50 [5, 15] was 2.57 ± 0.7 µM. The IC50 ([5]; Trypanosoma brucei, unit inferred) was 2.57 ± 0.7 µM, the IC50 ([6]; Trypanosoma brucei, 48 h) was 1.8 µM and the IC50 [7, 16] was 5.1 µM. The IC50 [8, 17] was 4.3 µM, the IC50 [9, 18] was 8.43 ± 0.69 µM and the IC50 ([9]; Mus musculus, J774, table after b111, unit inferred, read-out: IC50, J774 macrophages) was 8.43 ± 0.69 µM. The IC50 ([10]; Homo sapiens, PC-3, 72 h) was 17.2 ± 2.8 µM and the “effect on cell cycle / DNA content by flow cytometry” value [11] was “accumulate in the G2M phase of the cell cycle”.

In the case of `CCCCCCN(CCCCCC)c1c([N+](=O)[O-])cc(S(N)(=O)=O)cc1[N+](=O)[O-]` [Compound 17], the IC50 ([2]; Leishmania donovani) is reported as 12.2 µM, the IC50 [3, 13] is reported as 11.7 ± 0.7 µM and the IC50 [3, 14] is reported as 11.7 ± 0.7 µM. For the same molecule, the “% Inhibition” value [4] was 48 ± 19%, the IC50 [5, 15] was 9.48 ± 1.73 µM and the IC50 ([6]; Trypanosoma brucei, 48 h) was 5.6 µM. For the same molecule, the IC50 [7, 16] was 10 µM, the IC50 [8, 17] was 12 µM and the IC50 [9, 18] was 1.91 ± 0.36 µM. It also gave an IC50 ([10]; Homo sapiens, PC-3, 72 h) of 11.2 ± 1.3 µM.

With `CCCN(CCC)c1c([N+](=O)[O-])cc(S(=O)(=O)Nc2ccccc2)cc1[N+](=O)[O-]` [Compound 20, N1-Phenyl-3,5-dinitro-N4,N4-di-n-propylsulfonilamide] the IC50 ([2]; Leishmania donovani) was 14.7 ± 1 µM, the “fold more active than 3 against promastigotes” value ([2]; relative to oryzalin 3) was 3.0 fold and the “fold more active than 3 against L. donovani axenic amastigotes” value [3] was 13.4 fold. For the same molecule, the IC50 ([3]; Leishmania donovani, 72 h, read-out: IC50, L. donovani axenic amastigotes) was 5.03 ± 1.08 µM, the IC50 ([3]; Leishmania donovani, read-out: IC50 vs. L. donovani amastigotes) was 5.41 ± 0.89 µM and the “% Inhibition” value [4] was 108 ± 7%. The IC50 ([5]; Trypanosoma brucei, 72 h) was 0.412 ± 0.044 µM, the IC50 ([5]; Trypanosoma brucei) was 0.4 µM and the IC50 ([6]; Trypanosoma brucei, 48 h) was 0.58 µM. The IC50 [7, 16] was 11 µM, the IC50 [8, 17] was 13 µM and the IC50 ([9]; Mus musculus, J774, read-out: IC50, J774 macrophages) was 28.3 ± 3.8 µM. For the same molecule, the IC50 [9, 19] was 30.8 ± 1.9 µM, the IC50 ([10]; Homo sapiens, PC-3, 72 h) was 41.3 ± 8.5 µM and the “effect on cell cycle / DNA content by flow cytometry” value [11] was “appearance of parasites containing approximately 4×, 8×, and 16× more DNA”. For the same molecule, the “parasite cell density over 48 hours” value ([11]; control cultures doubled approximately three times) was “remained at the same cell density” and the melting point was 120 °C.

For `CCCNS(=O)(=O)c1cc([N+](=O)[O-])c(N(CCC)CCC)c([N+](=O)[O-])c1` [Compound 21, N1-Propyl-3,5-dinitro-N4,N4-di-n-propylsulfonilamide], the IC50 ([2]; mean ± standard deviation of at least two independent measurements) was 56 ± 2.3 µM, the IC50 ([3]; read-out: IC50, L. donovani axenic amastigotes) was 54.3 µM and 56.9 µM and the IC50 ([3]; read-out: IC50 vs. L. donovani amastigotes) was 56.9 ± 3.4 µM. The “% Inhibition” value [4] was 97 ± 1%, the IC50 [5] was 9.2 µM and 8.06 µM and the IC50 ([6]; Coulter counter after two-day incubation) was 3 µM. The IC50 ([7]; tritiated hypoxanthine uptake, read-out: IC50, P. falciparum D6 strain) was 13 µM, the IC50 ([8]; tritiated hypoxanthine uptake, read-out: IC50, P. falciparum W2 strain) was over 25 µM and the IC50 [9, 19] was 21.8 ± 2.1 µM. The IC50 ([10]; three-day tetrazolium dye assay, mean ± SD) was 40.5 ± 8.6 µM.

For `CCCN(CCC)c1c([N+](=O)[O-])cc(C(F)(F)F)cc1[N+](=O)[O-]` [Trifluralin, trifluralin], the “aqueous solubility (in words)” value [12] is listed as “low solubility”.

From patent US20050227982A1, “Antileishmanial dinitroaniline sulfanomides with activity against parasite tubulin” (priority 2002, published 2005)
